From patent US12060588B2, “Methods of editing DNA methylation” (Whitehead Institute for Biomedical Research, priority 2016, dated 2024)

Tests used:
[1] = tested on: Snrpn promoter region and adjacent Dazl locus; assay: Bisulfite sequencing of the Dazl-Snrpn region in mESCs; assay type: cell-based, mouse; conditions: with target gRNAs
Description: FIGS. 1A-IF depict activation of the Daz1-Snrpn-GFP reporter by dCas9-Tet1. […] FIG. 1B is a schematic representation of targeting the Snrpn promoter region by dCas9-Tet1 with specific gRNAs to erase methylation and activate GFP expression. […] Percentage of GFP positive cells were calculated by flow cytometric analysis of these cells 3-day post infection, and shown as the mean percentages of GFP positive cells±SD of two biological replicates. Note that the percentages of GFP-positive cells are expressed as the fraction of infected Cherry-positive cells. […] Scale bar: 250 um. Right: provides percentages of GFP positive colonies were quantified, and shown as the mean percentages of GFP positive cells±SD of two biological replicates. […] FIG. 1F provides methylation levels of individual CpGs in the Snrpn promoter region and the adjacent Dazl locus. Shown is the mean percentage±SD of two biological replicates.
Demethylation of specific CpGs: To test whether defined sequences could be demethylated, we introduced the dCas9-Tet1 construct in combination with gRNAs to target the Snrpn-GFP reporter inserted into the Dazl promoter (FIG. 1B and FIG. 9A). […] To assess the activation efficiency by dCas9-Tet1 with target gRNAs, we analyzed the cells infected by both viruses using FACS. […] We further analyzed the GFP-positive and -negative populations within infected Cherry-positive cells. […]

BDNF promoter IV = assay: Tet-assisted bisulfite sequencing (TAB-seq) of 5-hmC in BDNF promoter IV; assay type: cell-based, mouse; conditions: with 4 BDNF gRNAs; 40 and 60 hours post infection
Description: FIGS. 11A-11L depict targeted demethylation of BDNF promoter IV by dCas9-Tet1 in neurons. […] PAM for each gRNA is highlighted by a red box. […] Note that cultured neurons were treated with AraC on DIV2 to halt cell division in glial cells and neural progenitors. […] FIG. 11C provides EDU labeling analysis for the mouse primary neurons over the course of KCl treatment for 24 hrs. Note that extremely few EDU positive cells were observed. Stained in red for EDU, green for MAP2 and DAPI for nuclei. Scale bar: 500 um. FIG. 11D Upper panel: provides quantification of neuronal density over the course of KCl treatment. The post-mitotic neuron density remains steadily around 4.5×10^4/cm2 over time. Bars represent mean±SD of three experimental replicates. Lower panel: provides quantification of the EDU positive cells over the course of KCl treatment. Less than 2% of the cells are EDU-positive over 24 hrs. Bars represent mean±SD of three experimental replicates. FIG. 11E provides confocal micrographs of BDNF induction by ectopic expression of dCas9-Tet1 and a set of 4 gRNAs targeting BDNF promoter IV. Stained in green for BDNF, magenta for MAP2, red for Cherry and blue for DAPI. […]
Because post-mitotic neurons were used for these experiments, loss of methylation was likely due to active demethylation. […] Similarly, 5-hmC was also detected after KCl treatment (FIG. 11I). […]

dCas9-Tet1: catalytically inactive Cas9 (dCas9) fused through NLS to the Tet1 catalytic domain, SEQ ID NO: 159; lentivirally expressed with gRNAs
methylation status of Snrpn promoter region and adjacent Dazl locus [1]: robust demethylation only in the Snrpn promoter region but not the adjacent Dad locus | 5-hmC level in BDNF promoter IV (BDNF promoter IV): detected 40-hour post infection with dCas9-Tet1 and gRNA lentiviruses and diminished after 60 hours
